Reference: PubChem BioAssay (NCI)
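Following 48 hours of exposure in 96-well plates, responses at five concentrations were used to interpolate endpoints linearly. GI50 marks 50% less growth. TGI is the concentration that stops growth completely.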

Legend:
Assay in all cases: NCI anticancer screen, dose series, 48 h
SF-268 CNS = test system: SF-268 CNS
OVCAR-5 ovarian = test system: OVCAR-5 ovarian
CCRF-CEM leukemia = test system: CCRF-CEM leukemia
IGROV1 ovarian = test system: IGROV1 ovarian
RPMI-8226 leukemia = test system: RPMI-8226 leukemia
CAKI-1 renal = test system: CAKI-1 renal
A549 NSCLC = test system: A549 NSCLC
HT29 colon = test system: HT29 colon
BT-549 breast = test system: BT-549 breast
HOP-62 NSCLC = test system: HOP-62 NSCLC
HCT-116 colon = test system: HCT-116 colon
ACHN renal = test system: ACHN renal
SNB-19 CNS = test system: SNB-19 CNS
SK-MEL-2 melanoma = test system: SK-MEL-2 melanoma
HCT-15 colon = test system: HCT-15 colon
MCF7 breast = test system: MCF7 breast
SK-MEL-5 melanoma = test system: SK-MEL-5 melanoma
T-47D breast = test system: T-47D breast
SF-295 CNS = test system: SF-295 CNS
NCI-H522 lung = test system: NCI-H522 lung
A498 renal = test system: A498 renal
SK-MEL-28 melanoma = test system: SK-MEL-28 melanoma
UACC-257 melanoma = test system: UACC-257 melanoma
MDA-MB-231 breast = test system: MDA-MB-231 breast
NCI-H226 lung = test system: NCI-H226 lung
DU-145 prostate = test system: DU-145 prostate
HS 578T breast = test system: HS 578T breast
EKVX NSCLC = test system: EKVX NSCLC
RXF 393 renal = test system: RXF 393 renal

Structure (SMILES): CSc1ccc(/C(=N/N=C(N)N)c2ccccc2)cc1
- GI50 (SF-268 CNS): 1290 nM
- TGI (SF-268 CNS): 16100 nM
- GI50 (OVCAR-5 ovarian): 571 nM
- TGI (OVCAR-5 ovarian): 15400 nM
- GI50 (CCRF-CEM leukemia): 357 nM
- TGI (CCRF-CEM leukemia): 19200 nM
- GI50 (IGROV1 ovarian): 563 nM
- TGI (IGROV1 ovarian): 12200 nM
- GI50 (RPMI-8226 leukemia): 391 nM
- TGI (RPMI-8226 leukemia): 5460 nM
- GI50 (CAKI-1 renal): 423 nM
- TGI (CAKI-1 renal): 10900 nM
- GI50 (A549 NSCLC): 984 nM
- TGI (A549 NSCLC): 14200 nM
- GI50 (HT29 colon): 301 nM
- TGI (HT29 colon): 2880 nM
- GI50 (BT-549 breast): 650 nM
- TGI (BT-549 breast): 3180 nM
- GI50 (HOP-62 NSCLC): 481 nM
- TGI (HOP-62 NSCLC): 13000 nM
- GI50 (HCT-116 colon): 330 nM
- TGI (HCT-116 colon): 11400 nM
- GI50 (ACHN renal): 695 nM
- TGI (ACHN renal): 12600 nM
- GI50 (SNB-19 CNS): 439 nM
- TGI (SNB-19 CNS): 14000 nM
- GI50 (SK-MEL-2 melanoma): 391 nM
- TGI (SK-MEL-2 melanoma): 12700 nM
- GI50 (HCT-15 colon): 377 nM
- TGI (HCT-15 colon): 12000 nM
- GI50 (MCF7 breast): 357 nM
- TGI (MCF7 breast): 9460 nM
- GI50 (SK-MEL-5 melanoma): 609 nM
- TGI (SK-MEL-5 melanoma): 2850 nM
- GI50 (T-47D breast): 535 nM
- TGI (T-47D breast): 15100 nM
- GI50 (SF-295 CNS): 350 nM
- TGI (SF-295 CNS): 11500 nM
- GI50 (NCI-H522 lung): 267 nM
- TGI (NCI-H522 lung): 996 nM
- GI50 (A498 renal): 319 nM
- TGI (A498 renal): 1660 nM
- GI50 (SK-MEL-28 melanoma): 1070 nM
- TGI (SK-MEL-28 melanoma): 20000 nM
- GI50 (UACC-257 melanoma): 1080 nM
- TGI (UACC-257 melanoma): 11800 nM
- GI50 (MDA-MB-231 breast): 498 nM
- TGI (MDA-MB-231 breast): 11800 nM
- GI50 (NCI-H226 lung): 848 nM
- TGI (NCI-H226 lung): 18600 nM
- GI50 (DU-145 prostate): 471 nM
- TGI (DU-145 prostate): 13300 nM
- GI50 (HS 578T breast): 359 nM
- TGI (HS 578T breast): 12900 nM
- GI50 (EKVX NSCLC): 779 nM
- TGI (EKVX NSCLC): 18100 nM
- GI50 (RXF 393 renal): 282 nM
